Assay results reported in patent publication US11433053B2, “LSD1 inhibitor and preparation method and application thereof” (CSPC ZHONGQI PHARMACEUTICAL TECHNOLOGY (SHIJIAZHUANG) CO., …, priority 2017, dated 2022).

Legend:
human LSD1 = human LSD1 (Homo sapiens (Human), UniProt O60341); assay: Evaluation of enzyme activity: LSD1 fluorescence coupling enzyme assay (HRP/Amplex Red); assay type: biochemical; details: human LSD1, histone H3(1-21)K4me2 peptide 10 μM, 30 min pre-incubation
How it was run: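 Human LSD1 preincubated 30 min with compound, then reacted with H3(1-21)K4me2 peptide (10 μM). FAD-dependent H2O2 detected via HRP/Amplex Red fluorescence (Ex/Em 535/590). Ten-dose, 3-fold dilutions in duplicate from 10 μM gave IC50s, binned into activity classes.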

[1] = system: human small cell lung cancer NCI-H1417 cells subcutaneous xenograft tumor; assay: In vivo pharmacodynamic study, NCI-H1417 subcutaneous xenograft tumor CB-17 SCID mouse model; design: species or system CB-17 SCID mice; details: PO, day 34 after administration
Experimental: The purpose of this experiment was to investigate the efficacy of some of the compounds of the present invention in the in vivo xenograft tumor of human small cell lung cancer NCI-H1417 cells in a CB-17 SCID mouse model.
Week age and weight: 6-8 weeks old, weight 18-23 g
Human small cell lung cancer NCI-H1417 cells were cultured in vitro in a single layer cultured in RPMI-1640 medium (Sigma-aldrich, R0883), supplemented with 10% fetal bovine serum and cultured at 37° C. 5% CO2. When the cell saturation is 80%-90%. The cells are harvested, counted, and inoculated.
0.2 mL of 10×10^6 (NCI-H1417 cells were subcutaneously inoculated into the right back of each mouse (PBS:Matrigel=1:1). After 21 days of tumor inoculation, group administration was started when the average volume reached 107 mm^3.
The experimental solvent was the 10% hydroxypropyl-β-cyclodextrin solution. The preparation method was as follows: 100 g of hydroxypropyl-β-cyclodextrin was weighed into a 1000 mL jar, 800 mL of ultrapure water was added, stirred overnight until completely dissolved, and then made up to 1000 mL. The test substance was dissolved in a solvent, and was prepared into a uniform solution of a certain concentration and stored at 4° C.
The experimental indicator is to investigate whether tumor growth is inhibited, delayed or cured. Tumor diameters were measured twice a week using vernier calipers. The tumor volume is calculated as: V=0.5a×b^2, and a and b represent the long and short diameters of the tumor, respectively.
The antitumor effect of the compound was evaluated by TG (%). TGI (%), reflecting the tumor growth inhibition rate. TGI (%) calculation: TGI (%)=[1−(the average tumor volume at the end of a treatment group−the average tumor volume at the beginning of the treatment group)/(the average tumor volume at the end of the treatment of the solvent control group−The average tumor volume at the start of treatment in the solvent control group) was ×100%. Solvent control: Vehicle (10% hydroxypropyl-β-cyclodextrin solution).

[2] = Pharmacokinetic evaluation in C57BL/6 mice after intravenous and oral administration; assay type: in vivo; details: male, mouse, plasma; for Cmax / clearance / half-life / Vd: IV 1 mg/kg; for Cmax: oral 2 mg/kg, route of Cmax not stated, read-out: max concentration Cmax; for clearance: read-out: clearance CL; for half-life: read-out: half-life T1/2 (IV, h) (converted); for Vd: read-out: volumes of distribution Vdss; for bioavailability: PO 2 mg/kg vs IV 1 mg/kg, read-out: bioavailability F (%); for AUC(0-t): PO 2 mg/kg, read-out: the area under the plasma concentration-time curve AUC0-last PO
Experimental: Experimental purposes: To test the pharmacokinetics of compounds in C57BL/6 mice
C57BL/6 mice (male, 7-9 weeks old, Shanghai Slack)
Test the pharmacokinetics characteristics of rodents after intravenous and oral administration in accordance with standard protocols, and the candidate compound was formulated into a clear solution in the experiment. The mice were administered by intravenous injection and orally once. The intravenous and oral vehicle is a 10% aqueous solution of hydroxypropyl β-cyclodextrin or a physiological saline solution. Six male C57BL/6 mice were employed in this assay, three of them were administered intravenously at a dose of 1 mg/kg, plasma samples were collected at 0 h (before administration) and 0.0833, 0.25, 0.5, 1, 2, 4, 7, 24 h after administration. Another three mice were administered by oral gavage at a dose of 2 mg/kg, plasma samples were collected at 0 h (before administration) and 0.5, 1, 2, 3, 4, 6, 24 h after administration. Collect whole blood samples within 24 hours, centrifuge at 3000 g for 15 minutes, separate the supernatant to obtain a plasma sample, 4 times volume of the internal standard acetonitrile solution was added to precipitate the protein. Centrifuge the supernatant and add an equal volume of water and centrifuge to take the supernatant. LC-MS/MS was used to quantitatively analyze plasma concentrations and calculate pharmacokinetic parameters such as max concentration (Cmax), clearance (CL), half-life (T1/2), volumes of distribution (Vdss), the area under the plasma concentration-time curve (AUC0-last), bioavailability (F), etc.

H1417 cells = assay: Cell proliferation inhibitory activity on H1417 cells (CellTiter-Glo, 10 days); assay type: cell-based, human; details: Homo sapiens; for IC50: NCI-H1417, 240 h, H1417 cells, 10 days incubation; for Emax: NCI-H1417, H1417 cells, highest percentage inhibition of cell viability, read-out: Maximum inhibition percentage (%)
How it was run: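 H1417 cells in RPMI 1640 with fetal bovine serum were treated with 10-point 3-fold compound dilutions for 10 days. Viability was read by CellTiter-Glo luminescence. IC50 came from a four-parameter fit of percent inhibition, and maximal inhibition was also categorized.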

| Structure (SMILES) | IC50 (human LSD1) [nM] | Cmax [2] [ng/mL] | clearance [2] [mL/min/kg] | half-life [2] [h] | Vd [2] [L/kg] | bioavailability [2] [%] | AUC(0-t) [2] [µM·h] | IC50 (H1417 cells) [nM] | TGI (%) ([1]; 2.5 mg/kg, BID) | Tumor volume (mm^3) (Day 34) ([1]; 2.5 mg/kg, BID) | TGI (%) ([1]; 5 mg/kg, QD) | Tumor volume (mm^3) (Day 34) ([1]; 5 mg/kg, QD) | Emax (H1417 cells) [%] |
| --- | --- | --- | --- | --- | --- | --- | --- | --- | --- | --- | --- | --- | --- |
| O=C(O)[C@H]1CC[C@H](c2nc(C3(CN[C@@H]4C[C@H]4c4ccccc4)CC3)no2)CC1 [Example 167] | 100 to 500 | 5090 | 11.6 | 1.4 | 0.4 | 48.1 | 3.51 |  | 81.4 | 213 ± 37 | 78.2 | 231 ± 28 |  |
| O=C(O)c1ccc(CN2CCC(c3nc(C4(CN[C@@H]5CC5c5ccccc5)CC4)no3)CC2)cc1 (stereo partly drawn) [Example 169] |  | 763 | 43.4 | 1 | 0.5 | 20.6 | 0.329 | 500 to 1000 |  |  |  |  | 50 to 70 |
| O=C(O)C12CCC(c3nc(C4(CN[C@H]5CC5c5ccccc5)CC4)no3)(CC1)CC2 (stereo partly drawn) [Example 177] |  | 3210 | 9.9 | 1.6 | 0.5 | 51.5 | 3.86 | 500 to 1000 |  |  |  |  | 50 to 70 |
| O=C(O)[C@@H]1CCCN1CC1(CN[C@H]2CC2c2ccccc2)CC1 (stereo partly drawn) [Example 210] | ≤ 50 | 815 | 37.7 | 2.7 | 2.6 | 40.5 | 1.13 | 500 to 1000 |  |  |  |  | 50 to 70 |
| CC1(c2nc(C3(CN[C@@H]4C[C@H]4c4ccccc4)CC3)no2)CCC(N)CC1 (stereo partly drawn) [Example 224] |  | 58.5 | 112 | 2.97 | 21.7 | 35.1 | 0.273 |  |  |  |  |  |  |
| O=C(O)C1(CN2CCC(c3nc(C4(CN[C@@H]5C[C@H]5c5ccccc5)CC4)no3)CC2)CCC1 [Example 235] | 100 to 500 | 497 | 62.4 | 0.34 | 0.99 | 28 | 0.37 | ≤ 100 |  |  |  |  | 70 to 90 |

Continued, in another order:

| IC50 (human LSD1) [nM] | Cmax [2] [ng/mL] | clearance [2] [mL/min/kg] | half-life [2] [h] | Vd [2] [L/kg] | bioavailability [2] [%] | AUC(0-t) [2] [µM·h] | IC50 (H1417 cells) [nM] | Structure (SMILES) | TGI (%) ([1]; 2.5 mg/kg, BID) | Tumor volume (mm^3) (Day 34) ([1]; 2.5 mg/kg, BID) | TGI (%) ([1]; 5 mg/kg, QD) | Tumor volume (mm^3) (Day 34) ([1]; 5 mg/kg, QD) | Emax (H1417 cells) [%] |
| --- | --- | --- | --- | --- | --- | --- | --- | --- | --- | --- | --- | --- | --- |
| ≤ 50 | 179 | 72.1 | 2 | 10.3 | 57.5 | 0.712 | ≤ 100 | N[C@H]1CC[C@H](c2noc(C3(CN[C@@H]4C[C@H]4c4ccccc4)CC3)n2)CC1 [Example 242] |  |  |  |  | 90 to 100 |
| ≤ 50 |  |  |  |  |  |  | 500 to 1000 | c1ccc([C@@H]2C[C@H]2NCC2(c3noc(N4CCNCC4)n3)CC2)cc1 [Example 246] |  |  |  |  | 90 to 100 |
| ≤ 50 |  |  |  |  |  |  | 500 to 1000 | CN1CCN(c2nc(C3(CN[C@@H]4C[C@H]4c4ccccc4)CC3)no2)CC1 [Example 247] |  |  |  |  | 90 to 100 |
